Measurements taken from the supplement of paper PMC10307832.

Key:
Experiment in all cases: relative viability (nuclei count vs DMSO), 5 days (fraction); higher = more cells survive
SK-MES-1 = tested on: SK-MES-1
Procedure, shortened: (§1)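 Lung cancer cell lines, seeded in 1536-well plates, were treated the following day by pin tool with a single drug or with five library-drug doses (not always all listed) in √10 steps on top of a fixed anchor-drug dose. Cells were fixed and nuclei stained in one step after 5 days, and nuclei were counted. Relative viability is the nuclei count for treated wells divided by that for vehicle wells, reported as medians of duplicate plates.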

RERF-LC-KJ = tested on: RERF-LC-KJ
Procedure, shortened: as §1

EPLC-272H = tested on: EPLC-272H
Procedure, shortened: as §1

NCI-H596 = tested on: NCI-H596
Procedure, shortened: as §1

HCC-15 = tested on: HCC-15
Procedure, shortened: as §1

HCC-78 = tested on: HCC-78
Procedure, shortened: as §1

NCI-H647 = tested on: NCI-H647
Procedure, shortened: as §1

COR-L 105 = tested on: COR-L 105
Procedure, shortened: as §1

NCI-H661 = tested on: NCI-H661
Procedure, shortened: as §1

NCI-H358 = tested on: NCI-H358
Procedure, shortened: as §1

LCLC-97TM1 = tested on: LCLC-97TM1
Procedure, shortened: as §1

SW 1573 = tested on: SW 1573
Procedure, shortened: as §1

NCI-H522 = tested on: NCI-H522
Procedure, shortened: as §1

NCI-H1395 = tested on: NCI-H1395
Procedure, shortened: as §1

NCI-H1648 = tested on: NCI-H1648
Procedure, shortened: as §1

NCI-H2009 = tested on: NCI-H2009
Procedure, shortened: as §1

NCI-H650 = tested on: NCI-H650
Procedure, shortened: as §1

HCC-44 = tested on: HCC-44
Procedure, shortened: as §1

HCC-366 = tested on: HCC-366
Procedure, shortened: as §1

ABC-1 = tested on: ABC-1
Procedure, shortened: as §1

NCI-H1993 = tested on: NCI-H1993
Procedure, shortened: as §1

HCC-827 = tested on: HCC-827
Procedure, shortened: as §1

C=C1C(=O)O[C@@H](CCCCCCCC)[C@@H]1C(=O)O [C-75] + O=C(CCCCCCC(=O)Nc1ccccc1)NO [Vorinostat] (partner 1 µM)
relative viability (SK-MES-1; first compound 0.08 µM): 1.08 | relative viability (SK-MES-1; first compound 0.253 µM): 1.12 | relative viability (SK-MES-1; first compound 0.8 µM): 1.06 | relative viability (SK-MES-1; first compound 2.53 µM): 1.04 | relative viability (SK-MES-1; first compound 8 µM): 1.1 | relative viability (RERF-LC-KJ; first compound 0.08 µM): 0.713 | relative viability (RERF-LC-KJ; first compound 0.253 µM): 0.801 | relative viability (RERF-LC-KJ; first compound 0.8 µM): 0.687 | relative viability (RERF-LC-KJ; first compound 2.53 µM): 0.69 | relative viability (RERF-LC-KJ; first compound 8 µM): 0.71 | relative viability (EPLC-272H; first compound 0.08 µM): 0.477 | relative viability (EPLC-272H; first compound 0.253 µM): 0.545 | relative viability (EPLC-272H; first compound 0.8 µM): 0.655 | relative viability (EPLC-272H; first compound 2.53 µM): 0.41 | relative viability (EPLC-272H; first compound 8 µM): 0.391 | relative viability (NCI-H596; first compound 0.08 µM): 0.644 | relative viability (NCI-H596; first compound 0.253 µM): 0.642 | relative viability (NCI-H596; first compound 0.8 µM): 0.671 | relative viability (NCI-H596; first compound 2.53 µM): 0.516 | relative viability (NCI-H596; first compound 8 µM): 0.483 | relative viability (HCC-15; first compound 0.08 µM): 0.831 | relative viability (HCC-15; first compound 0.253 µM): 0.918 | relative viability (HCC-15; first compound 0.8 µM): 0.838 | relative viability (HCC-15; first compound 2.53 µM): 0.862 | relative viability (HCC-15; first compound 8 µM): 0.835 | relative viability (HCC-78; first compound 0.08 µM): 0.372 | relative viability (HCC-78; first compound 0.253 µM): 0.668 | relative viability (HCC-78; first compound 0.8 µM): 0.373 | relative viability (HCC-78; first compound 8 µM): 0.372 | relative viability (NCI-H647; first compound 0.08 µM): 0.47 | relative viability (NCI-H647; first compound 0.253 µM): 0.873 | relative viability (NCI-H647; first compound 0.8 µM): 0.638 | relative viability (NCI-H647; first compound 2.53 µM): 0.464 | relative viability (NCI-H647; first compound 8 µM): 0.486 | relative viability (COR-L 105; first compound 0.08 µM): 0.906 | relative viability (COR-L 105; first compound 0.253 µM): 0.826 | relative viability (COR-L 105; first compound 0.8 µM): 0.895 | relative viability (COR-L 105; first compound 2.53 µM): 0.859 | relative viability (COR-L 105; first compound 8 µM): 0.813 | relative viability (NCI-H661; first compound 0.08 µM): 0.762 | relative viability (NCI-H661; first compound 0.253 µM): 0.828 | relative viability (NCI-H661; first compound 0.8 µM): 0.741 | relative viability (NCI-H661; first compound 2.53 µM): 0.657 | relative viability (NCI-H661; first compound 8 µM): 0.774 | relative viability (NCI-H358; first compound 0.08 µM): 0.704 | relative viability (NCI-H358; first compound 0.253 µM): 0.789 | relative viability (NCI-H358; first compound 0.8 µM): 0.689 | relative viability (NCI-H358; first compound 8 µM): 0.608 | relative viability (LCLC-97TM1; first compound 0.08 µM): 0.864 | relative viability (LCLC-97TM1; first compound 0.253 µM): 0.817 | relative viability (LCLC-97TM1; first compound 0.8 µM): 0.49 | relative viability (LCLC-97TM1; first compound 2.53 µM): 0.413 | relative viability (LCLC-97TM1; first compound 8 µM): 0.455 | relative viability (SW 1573; first compound 0.08 µM): 0.976 | relative viability (SW 1573; first compound 0.253 µM): 0.816 | relative viability (SW 1573; first compound 0.8 µM): 0.701 | relative viability (SW 1573; first compound 2.53 µM): 0.442 | relative viability (SW 1573; first compound 8 µM): 0.517 | relative viability (NCI-H522; first compound 0.08 µM): 0.912 | relative viability (NCI-H522; first compound 0.253 µM): 0.811 | relative viability (NCI-H522; first compound 0.8 µM): 0.905 | relative viability (NCI-H522; first compound 2.53 µM): 0.655 | relative viability (NCI-H522; first compound 8 µM): 0.868 | relative viability (NCI-H1395; first compound 0.08 µM): 0.649 | relative viability (NCI-H1395; first compound 0.253 µM): 0.768 | relative viability (NCI-H1395; first compound 2.53 µM): 0.634 | relative viability (NCI-H1395; first compound 8 µM): 0.711 | relative viability (NCI-H1648; first compound 0.08 µM): 0.571 | relative viability (NCI-H1648; first compound 0.253 µM): 1.1 | relative viability (NCI-H1648; first compound 0.8 µM): 0.283 | relative viability (NCI-H1648; first compound 8 µM): 0.216 | relative viability (NCI-H2009; first compound 0.08 µM): 0.764 | relative viability (NCI-H2009; first compound 0.253 µM): 0.668 | relative viability (NCI-H2009; first compound 0.8 µM): 0.469 | relative viability (NCI-H2009; first compound 2.53 µM): 0.783 | relative viability (NCI-H2009; first compound 8 µM): 0.715 | relative viability (NCI-H650; first compound 0.08 µM): 0.413 | relative viability (NCI-H650; first compound 0.253 µM): 0.388 | relative viability (NCI-H650; first compound 0.8 µM): 0.401 | relative viability (NCI-H650; first compound 2.53 µM): 0.351 | relative viability (NCI-H650; first compound 8 µM): 0.416 | relative viability (HCC-44; first compound 0.08 µM): 1.1 | relative viability (HCC-44; first compound 0.253 µM): 0.994 | relative viability (HCC-44; first compound 0.8 µM): 1.07 | relative viability (HCC-44; first compound 2.53 µM): 1.13 | relative viability (HCC-44; first compound 8 µM): 1.07 | relative viability (HCC-366; first compound 0.08 µM): 0.409 | relative viability (HCC-366; first compound 0.253 µM): 0.399 | relative viability (HCC-366; first compound 0.8 µM): 0.256 | relative viability (HCC-366; first compound 2.53 µM): 0.269 | relative viability (HCC-366; first compound 8 µM): 0.301 | relative viability (ABC-1; first compound 0.08 µM): 1.32 | relative viability (ABC-1; first compound 0.253 µM): 1.18 | relative viability (ABC-1; first compound 0.8 µM): 0.547 | relative viability (ABC-1; first compound 2.53 µM): 0.805 | relative viability (ABC-1; first compound 8 µM): 0.649 | relative viability (NCI-H1993; first compound 0.08 µM): 0.719 | relative viability (NCI-H1993; first compound 0.253 µM): 0.842 | relative viability (NCI-H1993; first compound 0.8 µM): 0.616 | relative viability (NCI-H1993; first compound 2.53 µM): 0.715 | relative viability (NCI-H1993; first compound 8 µM): 0.657 | relative viability (HCC-827; first compound 0.253 µM): 0.662 | relative viability (HCC-827; first compound 0.8 µM): 0.721 | relative viability (HCC-827; first compound 8 µM): 0.88
